The source of these data is PMC11106956 (Malaria Journal, 2024).

Like-named read-outs stand apart in the source and are kept apart here.

For series [1] the following is noted: single oral PQ 0.40-0.50 mg/kg; for Half-life (terminal elimination): median (range) in Table 3; for CF, proportional conversion factor between capillary and venous drug measurements, population estimate (%RSE): plasma; for MTT, absorption mean transit time, population estimate (%RSE): each compound modelled separately.
Text: (§1) This study was a part of an open-label, nonrandomized, dose-adjustment trial of the safety of SLD-PQ in G6PD-deficient and G6PD-normal males in Mali without microscopically detected malaria parasite infection. The main clinical trial was separated into two parts, i.e., Part I in adult males (aged 18–50) and Part II in children (aged 5–17). […] Only 28 adult males from the main trial provided pharmacokinetic samples and were included in this study.
(§2) After collection of day 0 samples, each participant received an oral dose of PQ according to his group assignment, after a fatty snack (biscuits) to minimized gastrointestinal symptoms. The study pharmacist prepared a dose by crushing a 15-mg tablet of PQ (Sanofi, Laval, Canada) in 15 mL of drinking water and administered the dose to the nearest 0.1 mL under direct observation. […] Capillary samples (0.5 mL) were collected at 2, 4, and 6 h post-dose. Both venous and capillary blood were collected using EDTA tubes, and centrifuged at 1100–1300×g for 10–20 min to obtain plasma samples. The samples were store immediately at − 80 °C until analysed.
(§3) All compounds were analysed using the liquid chromatography–mass spectrometry (LC–MS) method of Avula et al. [14], modified to employ an ACQUITY UHPLC™, BEH Shield RP18 column (100 mm × 2.1 mm I.D., 1.7 mm) equipped with an LC-18 guard column (Vanguard 2.1 × 5 mm, Waters Corp, Milford, MA, USA). PQ, CPQ and PQCG were separated and eluted within 10-min retention time. The mobile phase, run at a flow rate of 0.25 ml/min, consisted of 0.05% formic acid in water (A) water and 0.05% formic acid in acetonitrile (B) and was applied in a linear gradient elution. […] Samples were injected at 10 μL volume. The limits of quantification in plasma were 5 ng/mL for PQ and PQCG, and 1 ng/mL for CPQ. Quality control samples at 20 ng/mL were run at beginning and end of the batch analyses in duplicate. Intra-assay variability was less than 10%.
(§4) PQ, CPQ, and PQCG concentrations were transformed into their natural logarithms and analysed using a nonlinear mixed-effects modelling approach in NONMEM version 7.4 (Icon Development Solution, Ellicott city, MD). Pirana version 3.0.0 [15], Perl-speaks-NONMEM version 5.3.0 (PsN) [16] and R version 4.2.0 were used for automation, model evaluation, and diagnostics during the model building process. The first-order conditional estimation method with interaction (FOCE-I) was applied for the estimation method. Each compound was modelled separately. Data below the LLOQ was either omitted (M1-method) or incorporated by imputing the first LLOQ data as half of LLOQ (M6-method) [17].
(§5) Pharmacokinetic parameters were implemented as a log-normal distribution as follows: θi=θTV×expηi,θ where θi is the individual i th pharmacokinetic parameter estimate, θTV is the typical value of the population mean estimate, and ηi,θ is the inter-individual variability of the parameter θ for the i th individual, assumed to be normal distribution with zero mean and variance ω^2 . Estimated inter-individual variability below 10% was fixed to zero.
(§6) A linear association between capillary and venous plasma concentrations of all compounds was assumed and modelled using an estimated conversion factor at the population level. Unexplained residual errors were modelled separately for capillary and venous plasma concentrations and implemented as an additive error model on the log-transformed concentrations, equivalent to an exponential error on arithmetic scale.
In series [2] the test system is haemoglobin levels. The series can be described thus: Linear regression of pharmacokinetic parameters against change in haemoglobin; haemoglobin follow-up to 28 days. The settings on record: for Correlation (regression slope) of AUC24 with change in haemoglobin / Correlation (regression slope) of CMAX with change in haemoglobin: slope (95% CI). It counts as in vivo, human (African males, Mali).

For series [3] the following is noted: cited from earlier work.
In series [4] the test system is methaemoglobin levels. The series can be described thus: Linear regression of pharmacokinetic parameters against change in methaemoglobin. The format is in vivo, human (African males, Mali). Conditions: slope (95% CI).
Series [5] is described as follows: clinical. Conditions: male, human, plasma, po.
Text: as §1, §2, §3, §4, §5, §6
In series [6] the test system is haemoglobin. Conditions: G6PD-deficient individual, cited from earlier work.
The mark [7] stands for this setting: typical individual 62.5 kg, metabolites dosed as PQ molar dose 1:1.
The mark [8] stands for this setting: G6PD-deficient individuals (n = 18).
Where [9] appears, read: G6PD-normal individuals (n = 10).
The mark [10] stands for this setting: background statement, literature.

For `COc1cc(NC(C)CCC(=O)O)c2ncccc2c1` (stereo not drawn) [Carboxy-primaquine], the “Half-life (terminal elimination)” value in series [1] (n = 28) is 469 (325–1870) h. In addition, in series [1] (median (range), n = 28), the “AUC24, area under the concentration-time curve up to 24 h” value is 8030 (1490–12,800) h × ng/mL; the “CMAX, maximum concentration” value is on record as 338 (74.3–546) ng/mL; the “TMAX, time to maximum concentration” value is recorded as 4.57 (2.19–18.1) h. The “CF, proportional conversion factor between capillary and venous drug measurements, population estimate (%RSE)” value in series [1] is given as 69.1 (3.83%). The terminal elimination half-life result in series [1] (sampling only to 24 h) is on record as “approximately 19.5 days”. The “MTT, absorption mean transit time, population estimate (%RSE)” value in series [1] (typical individual 62.5 kg) is given as 1.24 (11.7%) h. For the same compound, in series [1] (setting [7]), the “CL/F, apparent elimination clearance, population estimate (%RSE)” value is reported as 0.129 (28.5%) L/h and the “VC/F, apparent volume of distribution of the central compartment, population estimate (%RSE)” value is on record as 93.3 (7.00%) L. Moreover, in series [2] (setting [8]), the “Correlation (regression slope) of AUC24 with change in haemoglobin” value was 195 (95% CI: -58.7 to 448) p = 0.123 % HB change per 1 ng·hr/mL and the “Correlation (regression slope) of CMAX with change in haemoglobin” value was 9.27 (95% CI: -1.25 to 19.8) p = 0.0803 % HB change per 1 ng/mL. In addition, in series [2] (setting [9]), the “Correlation (regression slope) of AUC24 with change in haemoglobin” value is on record as -206 (95% CI: -555 to 143) p = 0.210 % HB change per 1 ng·hr/mL and the “Correlation (regression slope) of CMAX with change in haemoglobin” value is -4.63 (95% CI: -18.4 to 9.13) p = 0.460 % HB change per 1 ng/mL. Also, the “terminal half-life previously reported” value in series [3] (healthy volunteers) is 15.6 h. In series [4] (setting [8]), the “Correlation (regression slope) of AUC24 with change in methaemoglobin” value is on record as -1914 (95% CI: -8430 to 4602) p-value = 0.534 % mHB change per 1 ng·hr/mL and the “Correlation (regression slope) of CMAX with change in methaemoglobin” value was -49.4 (95% CI: -341 to 242) p-value = 0.719 % mHB change per 1 ng/mL. For the same compound, in series [4] (setting [9]), the “Correlation (regression slope) of AUC24 with change in methaemoglobin” value is listed as 1948 (95% CI: -12127 to 16023) p-value = 0.720 % mHB change per 1 ng·hr/mL and the “Correlation (regression slope) of CMAX with change in methaemoglobin” value is on record as 119 (95% CI: -351 to 589) p-value = 0.521 % mHB change per 1 ng/mL.
In the case of `COc1cc(NC(C)CCCN)c2ncccc2c1` (stereo not drawn) [Primaquine, reference compound], in series [1] (n = 28), the “Half-life (terminal elimination)” value is listed as 7.42 (7.04–7.93) h. Also, the “CF, proportional conversion factor between capillary and venous drug measurements, population estimate (%RSE)” value in series [1] was 32.9 (6.89%). Besides, the “MTT, absorption mean transit time, population estimate (%RSE)” value in series [1] (typical individual 62.5 kg) is on record as 0.563 (18.7%) h. In addition, the “CL/F, apparent elimination clearance, population estimate (%RSE)” value in series [1] (setting [7]) is 15.4 (9.57%) L/h. In addition, the Tmax in series [5] worked out at 0.872 h. In series [5] (Half-life (terminal elimination), median (range) in Table 3, single oral PQ 0.40-0.50 mg/kg, n = 28), this compound had a half-life of about 7.42 h. The “haemoglobin decline after PQ administration” value in series [2] (in vivo) is listed as “no significant haemoglobin declines”. Further, the haematological safety entry in series [2] (in vivo, 0.5 mg/kg) is on record as “haematologically safe”. The “predicted median reduction of haemoglobin” value in series [6] (0.25 mg/kg SLD-PQ, 90% CI 0.12-0.65) was 0.35 g/dL; in series [6] (0.40 mg/kg SLD-PQ, 90% CI 0.21-1.00), 0.56 g/dL. The bioavailability in series [3] (setting [10]) is recorded as 96%. For the same compound, the terminal half-life in series [3] (setting [10]) is 5 to 6 h.
